In publication PMC6753678, “Fueling Open Innovation for Malaria Transmission-Blocking Drugs: Hundreds of Molecules Targeting Early Parasite Mosquito Stages” (Frontiers in Microbiology, 2019):
Like-named read-outs stand apart in the source and are kept apart here.

Tests used:
[1] = tested on: P. falciparum late stage (stages IV-V) gametocytes; experiment: P. falciparum late stage gametocyte ATP depletion assay (Pf GC-ATP); conditions: 1: YES; 0: NO
[2] = tested on: P. falciparum late stage (stages IV-V) gametocytes; set-up: method as in Almela et al 2016; conditions: TCAMS screen comparison; ref Almela et al 2016; read-out: Pf GCT ATP IC50; cited from earlier work
[3] = tested on: P. falciparum female gametocytes; set-up: method as in Miguel-Blanco et al 2017; conditions: TCAMS screen comparison; ref Miguel-Blanco et al 2017; read-out: Pf FGAA IC50; cited from earlier work
[4] = tested on: P. falciparum female gametocytes; experiment: P. falciparum female gametogenesis assay (Pf FGAA); conditions: 1: YES; 0: NO
HepG2 cells [5] = experiment: HepG2 cytotoxicity assay; conditions: HepG2 cytotoxicity unified across the three screens
How it was run: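 Cells at 2,500 per well in MEM with 10% fetal bovine serum and 1% NEAA were exposed to test compounds for 48 h at 37°C, 5% CO2. Viability was read by fluorescence, with percent inhibition calculated against 50 μM doxorubicin (positive) and DMSO (negative) controls.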

HepG2 cells [6] = conditions: cited from earlier work
[7] = value reported with the Pf FGAA screen, ref Miguel-Blanco et al 2017
[8] = value reported with the Pf GCT ATP screen, ref Almela et al 2016

| SMILES | Is compound selective in assay? Pf GC-ATP active? [1] | IC50 [2] | IC50 [3] | Is compound selective in assay? Pf FGAA active? [4] | Unified cytotox (HepG2 cells [5]) | HepG2 cytoxicity (HepG2 cells [6]; [7]) | HepG2 cytoxicity (HepG2 cells [6]; [8]) |
| --- | --- | --- | --- | --- | --- | --- | --- |
| COc1cccc(-c2csc(C(=O)NCC3CCN(Cc4ccc(C(C)(C)C)cc4)C3)c2)c1.O=C(O)C(F)(F)F (stereo not drawn) [TCMDC-134447] | 1 (1: YES) | 230 nM | 650 nM | 1 (1: YES) | 7.64 µM | 5.78 µM | 9.5 µM |
| COc1cccc(OC)c1CN1CCC(N(C)CCCCCCCCN2CCC(OC(=O)Nc3ccccc3-c3ccccc3)CC2)CC1 [TCMDC-134684] | 0 (0: NO) | 1040 nM | 2260 nM | 0 (0: NO) | 2.66 µM | 1.93 µM | 3.4 µM |
| COc1cccc(OC)c1CN1CCC(N(C)CCCCCCCCCN2CCC(OC(=O)Nc3ccccc3-c3ccccc3)CC2)CC1 [TCMDC-134690] | 0 (0: NO) | 260 nM | 1310 nM | 0 (0: NO) | 1.91 µM | 1.91 µM | <1.56 µM |
| Fc1ccc(OC2CN(c3nccc(NCc4ccccc4Cl)n3)C2)cc1 [TCMDC-135110] | 1 (1: YES) | 2510 nM | 5220 nM | 1 (1: YES) | 83.45 µM | 83.45 µM | >25 µM |
| CCn1c(Sc2ccc([N+](=O)[O-])c(C#N)c2)nnc1-c1cccc(Cl)c1 [TCMDC-135234] | 0 (0: NO) | 3040 nM | 1340 nM | 1 (1: YES) | 18.80 µM | 18.80 µM | >25 µM |
| CCn1c(-c2nonc2N)nc2c(-c3cc4ccccc4s3)ncc(C(=O)N3CCC(N)C3)c21.O=C(O)C(F)(F)F (stereo not drawn) [TCMDC-135281] | 0 (0: NO) | 350 nM | 450 nM | 0 (0: NO) | 2.25 µM | 1.00 µM | 3.5 µM |
| CNCCNc1nccc(N2CCc3ncnc(Nc4ccc(OCc5cccc(F)c5)c(Cl)c4)c3C2)n1 [TCMDC-135478] | 0 (0: NO) | 670 nM | 1670 nM | 0 (0: NO) | 6.39 µM | 5.62 µM | 7.16 µM |
| COc1ccc(-c2cnc3[nH]cc(-c4ccncc4)c3c2)cc1OC [TCMDC-135853] | 0 (0: NO) | 900 nM | 2260 nM | 0 (0: NO) | 7.44 µM | 11.79 µM | 3.1 µM |
| CCn1c(-c2nonc2N)nc2c(-c3cccc(NC(=O)Nc4cccc(Cl)c4)c3)ncc(OCCCN)c21.O=C(O)C(F)(F)F [TCMDC-136193] | 1 (1: YES) | 2170 nM | 1180 nM | 1 (1: YES) | 47.43 µM | 80.36 µM | 14.5 µM |
